Experiments:
[1] = biological target: T1, recombinant human MAO-B (hMAOB) (Homo sapiens, UniProt P27338); experiment: biochemical; assay type: biochemical; conditions: for inhibition at 1 µM: 1 µM compound; for IC50: means ± SD of three experiments
T1 sequence (P27338 1-520): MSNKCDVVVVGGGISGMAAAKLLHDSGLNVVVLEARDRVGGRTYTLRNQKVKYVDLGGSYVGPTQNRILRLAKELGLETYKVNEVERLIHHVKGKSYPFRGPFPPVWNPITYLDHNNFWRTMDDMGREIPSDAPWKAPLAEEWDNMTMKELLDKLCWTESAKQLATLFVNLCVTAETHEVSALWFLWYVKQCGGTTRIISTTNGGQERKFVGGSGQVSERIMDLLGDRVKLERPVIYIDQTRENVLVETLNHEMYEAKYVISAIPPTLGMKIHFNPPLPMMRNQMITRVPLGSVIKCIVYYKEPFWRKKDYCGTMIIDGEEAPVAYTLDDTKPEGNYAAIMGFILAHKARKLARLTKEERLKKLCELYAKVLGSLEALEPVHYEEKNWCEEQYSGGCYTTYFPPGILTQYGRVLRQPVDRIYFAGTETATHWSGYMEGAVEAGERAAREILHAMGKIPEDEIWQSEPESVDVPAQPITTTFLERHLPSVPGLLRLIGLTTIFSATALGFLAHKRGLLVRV
Experimental: (§1) Monoamine oxidase (MAO) activity for both recombinant human MAO-A (hMAOA) and MAO-B (hMAOB) was assessed using a fluorometric assay based on the Amplex® UltraRed reagent. This method, originally reported by Bautista-Aguilera et al. and later adapted with minor changes by Kasabova-Angelova et al., detects hydrogen peroxide or peroxidase activity present in enzymes or biological samples. In this assay, Amplex® Red reacts in a 1:1 molar ratio with hydrogen peroxide in the presence of peroxidase, producing the red-fluorescent compound resorufin. Due to resorufin’s strong extinction coefficient (58,000 ± 5000 cm^−1·M^−1), measurements could be accurately taken using either fluorometric or spectrophotometric methods. […] The control conditions included the use of purified hMAOA or hMAOB in reaction buffer, enzyme solutions with hydrogen peroxide, and buffer alone. All the test compounds were initially prepared at a 1 µM final concentration. These compounds were combined with either hMAOA or hMAOB and loaded into a 96-well plate (with eight replicates per test compound), followed by incubation for 30 min at 37 °C in the dark. Subsequently, a 50 µL detection mix was added to each well. This mix contained Amplex® Red, horseradish peroxidase (HRP), and tyramine substrate, all prepared in a reaction buffer. As this enzymatic reaction proceeded continuously, the fluorescence signal was recorded every 30 min (at 0, 30, 60, 90, 120, and 150 min) to track enzymatic kinetics.

[2] = biological target: T2, recombinant human MAO-A (hMAOA) (Homo sapiens, UniProt P21397); experiment: MAO-A inhibition, fluorometric Amplex UltraRed assay; assay type: biochemical; conditions: for inhibition at 1 µM: 1 µM compound, read-out: Inhibition Activity 1 µM MAO-A; for IC50: means ± SD of three experiments, read-out: MAO-A IC50
T2 sequence (P21397 1-527): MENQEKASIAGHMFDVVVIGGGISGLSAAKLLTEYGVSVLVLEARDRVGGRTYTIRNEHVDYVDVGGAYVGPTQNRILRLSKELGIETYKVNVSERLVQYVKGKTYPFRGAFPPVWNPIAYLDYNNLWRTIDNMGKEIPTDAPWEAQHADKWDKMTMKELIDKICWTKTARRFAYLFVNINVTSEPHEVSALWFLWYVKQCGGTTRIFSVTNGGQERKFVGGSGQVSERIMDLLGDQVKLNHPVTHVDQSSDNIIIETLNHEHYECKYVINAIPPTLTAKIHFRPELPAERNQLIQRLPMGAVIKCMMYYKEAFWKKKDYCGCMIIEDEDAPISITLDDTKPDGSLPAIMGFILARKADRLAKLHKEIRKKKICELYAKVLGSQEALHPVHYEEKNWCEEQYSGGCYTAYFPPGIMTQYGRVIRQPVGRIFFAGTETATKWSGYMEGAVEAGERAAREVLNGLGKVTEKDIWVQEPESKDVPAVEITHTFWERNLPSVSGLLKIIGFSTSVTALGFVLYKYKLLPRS
Experimental: as §1

BChE = biological target: T3, BChE (Equus caballus, UniProt P81908); experiment: biochemical; conditions: for IC50: means ± SD of three experiments, read-out: BChE IC50; for inhibition at 200 µM: read-out: Inhibition Activity 200 µM BChE
T3 construct: purchased Sigma-Aldrich, Hamburg, Germany; host or cells: equine serum
Experimental: (§2) AChE and BChE inhibitory activity of the newly synthesized pyrrole-based compounds was measured using the microplate assay described by Ellman et al. with the modifications added by López et al.. The compounds were tested at concentrations between 0.01 and 200 μM. First, they were dissolved in phosphate buffer (PBS) (8 mM K2HPO4, 2.3 mM NaH2PO4, 0.15 M NaCl, pH 7.5), assisted by the addition of no more than 5% MeOH. Then, they were serially diluted with PBS to provide the concentration range needed. Acetylcholinesterase from Electrophorus electricus and butyrylcholinesterase from equine serum (Sigma-Aldrich, Hamburg, Germany) were used with a substrate solution of 5,5′-dithiobis(2-nitrobenzoic acid) (DTNB) with acetylthiocholine iodide (ATCI) or butyrylthiocholine iodide (BTCI), respectively (0.04 M Na2HPO4, 0.2 mM DTNB, 0.24 mM ATCI or BTCI, pH 7.5). A total of 50 μL of AChE or BChE (0.25 U/mL, in PBS) and 50 μL of the tested compound solution were added to the wells. Incubation of the plates was performed at room temperature for 30 min. Then, 100 μL of substrate solution was added to start the enzymatic reaction. […] Enzyme activity was calculated as an inhibition percentage compared to an assay including buffer instead of an inhibitor.

AChE = biological target: T4, AChE (Electrophorus electricus, UniProt O42275); experiment: biochemical; assay type: biochemical; conditions: for inhibition at 200 µM: 200 µM compound; for IC50: means ± SD of three experiments
T4 construct: purchased Sigma-Aldrich, Hamburg, Germany
Experimental: as §2

T3 sequence (P81908 whole entry): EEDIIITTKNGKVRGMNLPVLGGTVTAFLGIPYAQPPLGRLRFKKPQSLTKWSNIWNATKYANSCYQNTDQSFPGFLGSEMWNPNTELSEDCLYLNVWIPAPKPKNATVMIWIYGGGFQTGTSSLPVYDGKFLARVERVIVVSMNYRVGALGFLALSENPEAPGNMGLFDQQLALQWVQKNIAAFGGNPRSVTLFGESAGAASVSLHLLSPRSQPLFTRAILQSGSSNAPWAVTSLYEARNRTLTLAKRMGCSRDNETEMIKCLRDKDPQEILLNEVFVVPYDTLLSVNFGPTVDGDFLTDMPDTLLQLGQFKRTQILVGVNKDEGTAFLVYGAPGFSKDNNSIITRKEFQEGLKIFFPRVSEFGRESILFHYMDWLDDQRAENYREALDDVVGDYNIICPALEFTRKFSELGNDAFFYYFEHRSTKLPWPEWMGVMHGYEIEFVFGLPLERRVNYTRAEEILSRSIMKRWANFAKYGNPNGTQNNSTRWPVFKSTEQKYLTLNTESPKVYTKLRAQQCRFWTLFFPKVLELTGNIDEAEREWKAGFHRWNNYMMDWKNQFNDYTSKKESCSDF
T4 sequence (O42275 24-633): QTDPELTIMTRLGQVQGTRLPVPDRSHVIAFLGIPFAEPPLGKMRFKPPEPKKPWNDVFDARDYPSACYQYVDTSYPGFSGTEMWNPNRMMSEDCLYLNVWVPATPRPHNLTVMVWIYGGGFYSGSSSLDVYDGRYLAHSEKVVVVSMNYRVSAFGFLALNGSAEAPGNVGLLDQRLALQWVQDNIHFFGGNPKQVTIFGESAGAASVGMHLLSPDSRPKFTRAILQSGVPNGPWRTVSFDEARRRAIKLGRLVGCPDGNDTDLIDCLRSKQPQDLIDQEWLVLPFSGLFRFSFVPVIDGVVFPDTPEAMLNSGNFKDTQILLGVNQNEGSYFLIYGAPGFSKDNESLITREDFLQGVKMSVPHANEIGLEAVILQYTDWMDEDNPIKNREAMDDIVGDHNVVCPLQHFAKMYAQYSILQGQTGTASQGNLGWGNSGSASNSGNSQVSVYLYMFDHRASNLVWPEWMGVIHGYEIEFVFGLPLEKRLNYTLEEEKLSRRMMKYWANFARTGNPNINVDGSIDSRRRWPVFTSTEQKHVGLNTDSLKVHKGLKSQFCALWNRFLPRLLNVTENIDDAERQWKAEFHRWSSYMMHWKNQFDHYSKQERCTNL

Q: For Cc1ccc(C)n1-c1ccc(O)c(C(=O)O)c1 [EM-DC-18, 5-(2,5-dimethyl-1H-pyrrol-1-yl)-2-hydroxybenzoic acid], which inhibition at 1 µM [1] is on record?
A: The inhibition at 1 µM was 98 ± 7.1%.

Q: What about the IC50 [1] of the same compound?
A: The IC50 was over 100 µM.

Q: And the inhibition at 1 µM [2]?
A: The inhibition at 1 µM was 98 ± 6.5%.

Q: What about the IC50 [2] of the same compound?
A: The IC50 was over 100 µM.

Q: And the IC50 (BChE)?
A: Its IC50 is over 200 µM.

Q: And the inhibition at 200 µM (BChE)?
A: Its inhibition at 200 µM is 0%.

Q: What about the inhibition at 200 µM (AChE) of the same compound?
A: Its inhibition at 200 µM is 16 ± 1.4%.

Q: What about the IC50 (AChE) of the same compound?
A: The IC50 was over 200 µM.

Q: How did the inhibition at 200 µM (BChE) turn out when COc1ccc2c3c1O[C@H]1C[C@@H](O)C=C[C@@]31CCN(C)C2 [Galanthamine, reference compound] was run?
A: Its inhibition at 200 µM is 89.16 ± 0.44%.

Q: For Cc1ccc(C)n1C(C)(C)CO [EM-DC-14, 2-(2,5-dimethyl-1H-pyrrol-1-yl)-2-methylpropan-1-ol], which inhibition at 1 µM [1] is on record?
A: Its inhibition at 1 µM is 75 ± 7.1%.

Q: What about the IC50 [1] of the same compound?
A: The IC50 was 0.46 ± 0.1 µM.

Q: And the inhibition at 1 µM [2]?
A: The inhibition at 1 µM was 75 ± 7.1%.

Q: And the IC50 [2]?
A: The IC50 was 0.44 ± 0.1 µM.

Q: And the IC50 (BChE)?
A: The IC50 was over 200 µM.

Q: What about the inhibition at 200 µM (BChE) of the same compound?
A: Its inhibition at 200 µM is 0%.

Q: What about the inhibition at 200 µM (AChE) of the same compound?
A: The inhibition at 200 µM was 33.2 ± 2.03%.

Q: What about the IC50 (AChE) of the same compound?
A: Its IC50 is over 200 µM.

Q: Which inhibition at 200 µM (BChE) does the source give for COc1cc2c(cc1OC)C(=O)C(CC1CCN(Cc3ccccc3)CC1)C2 (stereo not shown) [Donepezil, reference compound] here?
A: Its inhibition at 200 µM is 92.25 ± 0.22%.

Q: How did the inhibition at 1 µM [1] turn out when Cc1ccc(C)n1-c1ccc(C(=O)NCC(=O)O)cc1 [EM-DC-24, [4-(2,5-dimethyl-1H-pyrrol-1-yl)benzamido]acetic acid] was run?
A: The inhibition at 1 µM was 80 ± 7.1%.

Q: What about the IC50 [1] of the same compound?
A: The IC50 was 0.59 ± 0.1 µM.

Q: What about the inhibition at 1 µM [2] of the same compound?
A: Its inhibition at 1 µM is 80 ± 7.1%.

Q: What about the IC50 [2] of the same compound?
A: Its IC50 is 0.58 ± 0.1 µM.

Q: And the IC50 (BChE)?
A: The IC50 was over 200 µM.

Q: What about the inhibition at 200 µM (BChE) of the same compound?
A: The inhibition at 200 µM was 0%.

Q: What about the inhibition at 200 µM (AChE) of the same compound?
A: The inhibition at 200 µM was 24.1 ± 4.1%.

Q: And the IC50 (AChE)?
A: Its IC50 is over 200 µM.

Q: Cc1ccc(C)n1-c1ccc2c(c1)OCO2 [EM-DC-6, 1-(2H-1,3-benzodioxol-5-yl)-2,5-dimethyl-1H-pyrrole] was tested. Which inhibition at 1 µM [1] did it give?
A: The inhibition at 1 µM was 98 ± 7.1%.

Q: And the IC50 [1]?
A: Its IC50 is over 100 µM.

Q: What about the inhibition at 1 µM [2] of the same compound?
A: The inhibition at 1 µM was 97 ± 7.1%.

Q: What about the IC50 [2] of the same compound?
A: The IC50 was over 100 µM.

Q: What about the IC50 (BChE) of the same compound?
A: The IC50 was over 200 µM.

Q: And the inhibition at 200 µM (BChE)?
A: The inhibition at 200 µM was 36.3 ± 3.54%.

Q: What about the inhibition at 200 µM (AChE) of the same compound?
A: Its inhibition at 200 µM is 65 ± 1.14%.

Q: And the IC50 (AChE)?
A: Its IC50 is 128 ± 1.87 µM.

Q: What does the source list for Cc1ccc(C)n1-c1ccc(Br)cc1 [EM-DC-4, 1-(4-bromophenyl)-2,5-dimethyl-1H-pyrrole]?
A: inhibition at 1 µM [1]: 98 ± 7.1%; IC50 [1]: > 100 µM; inhibition at 1 µM [2]: 60 ± 6.8%; IC50 [2]: 0.32 ± 0.1 µM; IC50 (BChE): > 200 µM; inhibition at 200 µM (BChE): 0%; inhibition at 200 µM (AChE): 1.4 ± 0.38%; IC50 (AChE): > 200 µM

Q: What does the source list for Cc1ccc(C)n1CC(O)c1ccc(O)cc1 (stereo not shown) [EM-DC-10, 4-[2-(2,5-dimethyl-1H-pyrrol-1-yl)-1-hydroxyethyl]phenol]?
A: inhibition at 1 µM [1]: 99 ± 7.1%; IC50 [1]: > 100 µM; inhibition at 1 µM [2]: 99 ± 6.8%; IC50 [2]: > 100 µM; IC50 (BChE): 11.3 ± 0.87 µM; inhibition at 200 µM (BChE): 87.2 ± 1.6%; inhibition at 200 µM (AChE): 60.4 ± 1.05%; IC50 (AChE): 148 ± 5.91 µM

Q: How did the inhibition at 1 µM [1] turn out when Cc1ccc(C)n1-c1ccc(O)cc1 [EM-DC-1, 4-(2,5-dimethyl-1H-pyrrol-1-yl)phenol] was run?
A: The inhibition at 1 µM was 99 ± 7.1%.

Q: And the IC50 [1]?
A: The IC50 was over 100 µM.

Q: What about the inhibition at 1 µM [2] of the same compound?
A: Its inhibition at 1 µM is 55 ± 7.1%.

Q: And the IC50 [2]?
A: The IC50 was 0.32 ± 0.1 µM.

Q: What about the IC50 (BChE) of the same compound?
A: The IC50 was 173 ± 7.3 µM.

Q: What about the inhibition at 200 µM (BChE) of the same compound?
A: The inhibition at 200 µM was 53.9 ± 2.14%.

Q: And the inhibition at 200 µM (AChE)?
A: The inhibition at 200 µM was 7.52 ± 2.07%.

Q: What about the IC50 (AChE) of the same compound?
A: Its IC50 is over 200 µM.
